In ChEMBL document CHEMBL1157156, “A novel sesquiterpene lactone from Centaurea pullata: structure elucidation, antimicrobial activity, and prediction of pharmacokinetic properties” (2008):
≈ marks a conversion by molar mass, not a printed value.

Assays:
Bacillus subtilis = test: Antimicrobial activity against Bacillus subtilis ATCC 10907 by serial dilution technique; format: functional
Micrococcus luteus = test: Antimicrobial activity against Micrococcus flavus ATCC 10240 by serial dilution technique; format: functional
[1] = test system: Staphylococcus epidermidis; test: Antimicrobial activity against Staphylococcus epidermidis ATCC 12228 by serial dilution technique; format: functional
Escherichia coli = test: Antimicrobial activity against Escherichia coli ATCC 35210 by serial dilution technique; format: functional
Pseudomonas tolaasii = test: Antimicrobial activity against Pseudomonas tolaasii by serial dilution technique; format: functional
Salmonella enteritidis = test: Antimicrobial activity against Salmonella enteritidis ATCC 13076 by serial dilution technique; format: functional, Salmonella enterica subsp. enterica serovar Enteritidis; details: Salmonella enterica
Alternaria alternata = test: Antimicrobial activity against Alternaria alternata DMS2006 by serial dilution technique; format: functional
Aspergillus flavus = test: Antimicrobial activity against Aspergillus flavus ATCC 9643 by serial dilution technique; format: functional
Aspergillus niger = test: Antimicrobial activity against Aspergillus niger ATCC 6275 by serial dilution technique; format: functional
Aspergillus ochraceus = test: Antimicrobial activity against Aspergillus ochraceus ATCC 12066 by serial dilution technique; format: functional
Fusarium tricinctum = test: Antimicrobial activity against Fusarium tricinctum by serial dilution technique; format: functional
Talaromyces funiculosus = test: Antimicrobial activity against Penicillium funiculosum ATCC 36839 by serial dilution technique; format: functional
Penicillium ochrochloron = test: Antimicrobial activity against Penicillium ochrochloron ATCC 9112 by serial dilution technique; format: functional
Trichoderma viride = test: Antimicrobial activity against Trichoderma viride IAM5061 by serial dilution technique; format: functional

Compound | MIC (Bacillus subtilis) [µM] | MIC (Micrococcus luteus) [µM] | MIC [1] [µM] | MIC (Escherichia coli) [µM] | MIC (Pseudomonas tolaasii) [µM] | MIC (Salmonella enteritidis) [µM] | MIC (Alternaria alternata) [µM] | MIC (Aspergillus flavus) [µM] | MIC (Aspergillus niger) [µM] | MIC (Aspergillus ochraceus) [µM] | MBC (Bacillus subtilis) [µM] | MBC (Micrococcus luteus) [µM] | MBC [1] [µM] | MBC (Pseudomonas tolaasii) [µM] | MBC (Salmonella enteritidis) [µM] | MFC (Alternaria alternata) [µM] | MFC (Aspergillus flavus) [µM] | MFC (Aspergillus niger) [µM] | MFC (Aspergillus ochraceus) [µM] | MFC (Fusarium tricinctum) [µM] | also measured
C/C1=C\CC/C(CO)=C/[C@H]2OC(=O)[C@@H](C)[C@@H]2[C@@H](O)C1 | 0.8 (≈ 0.213 µg/mL) | 1.1 (≈ 0.293 µg/mL) | 1.5 (≈ 0.4 µg/mL) | 1.5 (≈ 0.4 µg/mL) | 0.8 (≈ 0.213 µg/mL) | 1.1 (≈ 0.293 µg/mL) | 0.7 (≈ 0.186 µg/mL) | 0.3 (≈ 0.0799 µg/mL) | 0.7 (≈ 0.186 µg/mL) | 0.7 (≈ 0.186 µg/mL) | 1.1 (≈ 0.293 µg/mL) | 1.1 (≈ 0.293 µg/mL) | 1.9 (≈ 0.506 µg/mL) | 0.8 (≈ 0.213 µg/mL) | 1.5 (≈ 0.4 µg/mL) | 0.7 (≈ 0.186 µg/mL) | 0.7 (≈ 0.186 µg/mL) | 0.7 (≈ 0.186 µg/mL) | 0.7 (≈ 0.186 µg/mL) | 0.7 (≈ 0.186 µg/mL) | MIC (Fusarium tricinctum): 0.7 µM (≈ 0.186 µg/mL); MFC (Talaromyces funiculosus): 0.7 µM (≈ 0.186 µg/mL); MIC (Talaromyces funiculosus): 0.7 µM (≈ 0.186 µg/mL); MFC (Penicillium ochrochloron): 0.7 µM (≈ 0.186 µg/mL); MIC (Penicillium ochrochloron): 0.7 µM (≈ 0.186 µg/mL); MFC (Trichoderma viride): 0.7 µM (≈ 0.186 µg/mL); MIC (Trichoderma viride): 0.3 µM (≈ 0.0799 µg/mL)
Clc1ccc(COC(Cn2ccnc2)c2ccc(Cl)cc2Cl)c(Cl)c1 (configuration not stated) [MICONAZOLE] |  |  |  |  |  |  | 0.4 (≈ 0.166 µg/mL) | 1 (≈ 0.416 µg/mL) | 3 (≈ 1.25 µg/mL) | 3 (≈ 1.25 µg/mL) |  |  |  |  |  | 2 (≈ 0.832 µg/mL) | 4 (≈ 1.66 µg/mL) | 8 (≈ 3.33 µg/mL) | 8 (≈ 3.33 µg/mL) | 2 (≈ 0.832 µg/mL) | MIC (Fusarium tricinctum): 0.4 µM (≈ 0.166 µg/mL); MFC (Talaromyces funiculosus): 10 µM (≈ 4.16 µg/mL); MIC (Talaromyces funiculosus): 4 µM (≈ 1.66 µg/mL); MFC (Penicillium ochrochloron): 10 µM (≈ 4.16 µg/mL); MIC (Penicillium ochrochloron): 4 µM (≈ 1.66 µg/mL); MFC (Trichoderma viride): 4 µM (≈ 1.66 µg/mL); MIC (Trichoderma viride): 4 µM (≈ 1.66 µg/mL)
CN[C@@H]1[C@H](O[C@H]2[C@H](O[C@H]3[C@H](O)[C@@H](O)[C@H](N=C(N)N)[C@@H](O)[C@@H]3N=C(N)N)O[C@@H](C)[C@]2(O)C=O)O[C@@H](CO)[C@H](O)[C@H]1O [STREPTOMYCIN] | 0.8 (≈ 0.465 µg/mL) | 0.8 (≈ 0.465 µg/mL) | 1.6 (≈ 0.931 µg/mL) | 0.8 (≈ 0.465 µg/mL) | 1.6 (≈ 0.931 µg/mL) | 1.6 (≈ 0.931 µg/mL) |  |  |  |  | 0.8 (≈ 0.465 µg/mL) | 1.6 (≈ 0.931 µg/mL) | 1.6 (≈ 0.931 µg/mL) | 1.6 (≈ 0.931 µg/mL) | 1.6 (≈ 0.931 µg/mL) |  |  |  |  |  | 

Now from value to molecule, other results behind:

MIC (Bacillus subtilis) [µM] | MIC (Micrococcus luteus) [µM] | MIC [1] [µM] | MIC (Escherichia coli) [µM] | MIC (Pseudomonas tolaasii) [µM] | MIC (Salmonella enteritidis) [µM] | MIC (Alternaria alternata) [µM] | MIC (Aspergillus flavus) [µM] | MIC (Aspergillus niger) [µM] | MIC (Aspergillus ochraceus) [µM] | Compound | MBC (Bacillus subtilis) [µM] | MBC (Micrococcus luteus) [µM] | MBC [1] [µM] | MBC (Pseudomonas tolaasii) [µM] | MBC (Salmonella enteritidis) [µM] | MFC (Alternaria alternata) [µM] | MFC (Aspergillus flavus) [µM] | MFC (Aspergillus niger) [µM] | MFC (Aspergillus ochraceus) [µM] | MFC (Fusarium tricinctum) [µM] | also measured
1.5 (≈ 0.4 µg/mL) | 2.3 (≈ 0.613 µg/mL) | 2.3 (≈ 0.613 µg/mL) | 2.3 (≈ 0.613 µg/mL) | 2.3 (≈ 0.613 µg/mL) | 2.3 (≈ 0.613 µg/mL) | 0.7 (≈ 0.186 µg/mL) | 0.7 (≈ 0.186 µg/mL) | 0.7 (≈ 0.186 µg/mL) | 0.7 (≈ 0.186 µg/mL) | C=C[C@]1(C)C[C@H](O)[C@@H]2[C@H](OC(=O)[C@H]2C)[C@H]1C(=C)CO | 2.3 (≈ 0.613 µg/mL) | 2.3 (≈ 0.613 µg/mL) | 2.3 (≈ 0.613 µg/mL) | 2.3 (≈ 0.613 µg/mL) | 2.3 (≈ 0.613 µg/mL) | 0.7 (≈ 0.186 µg/mL) | 0.7 (≈ 0.186 µg/mL) | 0.7 (≈ 0.186 µg/mL) | 0.7 (≈ 0.186 µg/mL) | 0.7 (≈ 0.186 µg/mL) | MIC (Fusarium tricinctum): 0.7 µM (≈ 0.186 µg/mL); MFC (Talaromyces funiculosus): 0.7 µM (≈ 0.186 µg/mL); MIC (Talaromyces funiculosus): 0.7 µM (≈ 0.186 µg/mL); MFC (Penicillium ochrochloron): 0.7 µM (≈ 0.186 µg/mL); MIC (Penicillium ochrochloron): 0.7 µM (≈ 0.186 µg/mL); MFC (Trichoderma viride): 0.7 µM (≈ 0.186 µg/mL); MIC (Trichoderma viride): 0.3 µM (≈ 0.0799 µg/mL)
0.3 (≈ 0.0799 µg/mL) | 0.5 (≈ 0.133 µg/mL) | 0.7 (≈ 0.186 µg/mL) | 0.5 (≈ 0.133 µg/mL) | 0.7 (≈ 0.186 µg/mL) | 0.3 (≈ 0.0799 µg/mL) | 0.2 (≈ 0.0533 µg/mL) | 0.2 (≈ 0.0533 µg/mL) | 0.6 (≈ 0.16 µg/mL) | 0.4 (≈ 0.107 µg/mL) | C[C@@H]1C(=O)O[C@@H]2C3[C@H](C=O)CCC[C@]3(C)C[C@H](O)[C@@H]12 (some centres not stated) | 0.5 (≈ 0.133 µg/mL) | 0.7 (≈ 0.186 µg/mL) | 1.1 (≈ 0.293 µg/mL) | 1.1 (≈ 0.293 µg/mL) | 0.5 (≈ 0.133 µg/mL) | 0.2 (≈ 0.0533 µg/mL) | 0.4 (≈ 0.107 µg/mL) | 0.6 (≈ 0.16 µg/mL) | 0.4 (≈ 0.107 µg/mL) | 0.4 (≈ 0.107 µg/mL) | MIC (Fusarium tricinctum): 0.2 µM (≈ 0.0533 µg/mL); MFC (Talaromyces funiculosus): 0.6 µM (≈ 0.16 µg/mL); MIC (Talaromyces funiculosus): 0.4 µM (≈ 0.107 µg/mL); MFC (Penicillium ochrochloron): 0.4 µM (≈ 0.107 µg/mL); MIC (Penicillium ochrochloron): 0.4 µM (≈ 0.107 µg/mL); MFC (Trichoderma viride): 0.4 µM (≈ 0.107 µg/mL); MIC (Trichoderma viride): 0.4 µM (≈ 0.107 µg/mL)
0.2 (≈ 0.0729 µg/mL) | 0.4 (≈ 0.146 µg/mL) | 0.5 (≈ 0.182 µg/mL) | 0.4 (≈ 0.146 µg/mL) | 0.5 (≈ 0.182 µg/mL) | 0.2 (≈ 0.0729 µg/mL) | 0.1 (≈ 0.0364 µg/mL) | 0.1 (≈ 0.0364 µg/mL) | 0.3 (≈ 0.109 µg/mL) | 0.2 (≈ 0.0729 µg/mL) | C=C[C@]1(C)C[C@H](OC(=O)C(=C)CCO)[C@@H]2[C@H](OC(=O)[C@H]2C)[C@H]1C(=C)CO | 0.4 (≈ 0.146 µg/mL) | 0.5 (≈ 0.182 µg/mL) | 0.8 (≈ 0.292 µg/mL) | 0.8 (≈ 0.292 µg/mL) | 0.4 (≈ 0.146 µg/mL) | 0.1 (≈ 0.0364 µg/mL) | 0.2 (≈ 0.0729 µg/mL) | 0.3 (≈ 0.109 µg/mL) | 0.2 (≈ 0.0729 µg/mL) | 0.2 (≈ 0.0729 µg/mL) | MIC (Fusarium tricinctum): 0.1 µM (≈ 0.0364 µg/mL); MFC (Talaromyces funiculosus): 0.3 µM (≈ 0.109 µg/mL); MIC (Talaromyces funiculosus): 0.2 µM (≈ 0.0729 µg/mL); MFC (Penicillium ochrochloron): 0.2 µM (≈ 0.0729 µg/mL); MIC (Penicillium ochrochloron): 0.2 µM (≈ 0.0729 µg/mL); MFC (Trichoderma viride): 0.2 µM (≈ 0.0729 µg/mL); MIC (Trichoderma viride): 0.2 µM (≈ 0.0729 µg/mL)
0.7 (≈ 0.198 µg/mL) | 0.7 (≈ 0.198 µg/mL) | 1 (≈ 0.282 µg/mL) | 1 (≈ 0.282 µg/mL) | 0.7 (≈ 0.198 µg/mL) | 0.7 (≈ 0.198 µg/mL) | 0.3 (≈ 0.0847 µg/mL) | 0.3 (≈ 0.0847 µg/mL) | 0.3 (≈ 0.0847 µg/mL) | 0.3 (≈ 0.0847 µg/mL) | C[C@@H]1C(=O)O[C@H]2[C@H]1[C@@H](O)C[C@]1(C)[C@@H]2[C@@H](C=O)CC[C@H]1O | 0.7 (≈ 0.198 µg/mL) | 0.7 (≈ 0.198 µg/mL) | 1.4 (≈ 0.395 µg/mL) | 0.7 (≈ 0.198 µg/mL) | 1 (≈ 0.282 µg/mL) | 0.3 (≈ 0.0847 µg/mL) | 0.3 (≈ 0.0847 µg/mL) | 0.3 (≈ 0.0847 µg/mL) | 0.3 (≈ 0.0847 µg/mL) | 0.3 (≈ 0.0847 µg/mL) | MIC (Fusarium tricinctum): 0.3 µM (≈ 0.0847 µg/mL); MFC (Talaromyces funiculosus): 0.7 µM (≈ 0.198 µg/mL); MIC (Talaromyces funiculosus): 0.7 µM (≈ 0.198 µg/mL); MFC (Penicillium ochrochloron): 0.7 µM (≈ 0.198 µg/mL); MIC (Penicillium ochrochloron): 0.3 µM (≈ 0.0847 µg/mL); MFC (Trichoderma viride): 0.7 µM (≈ 0.198 µg/mL); MIC (Trichoderma viride): 0.7 µM (≈ 0.198 µg/mL)
